Measured values: ChEMBL document CHEMBL5543174, “A Nonbactericidal Anionic Antimicrobial Peptide Provides Prophylactic and Therapeutic Efficacies against Bacterial Infections in Mice by Immunomodulatory-Antithrombotic Duality” (J Med Chem, 2024)
Active and inactive are the calls of the source. The calls are words filed in the database; no cut-off is given here.

Experiments:
[1] = test system: Staphylococcus haemolyticus; experiment: Antimicrobial activity against Staphylococcus haemolyticus ATCC 29970 assessed as inhibition of microbial growth at <= 200 ug/ml incubated for 18 hrs by micro-broth dilution method; assay type: functional, organism-based; conditions: dose <= 200.0 µg/ml
[2] = test system: Escherichia coli; experiment: Antimicrobial activity against Escherichia coli ATCC 25922 assessed as reduction in metabolic activity at < 200 ug/ml incubated for 1 to 4 hrs by CCK-8 assay; assay type: functional, organism-based; conditions: dose < 200.0 µg/ml, time 1-4 hrs
[3] = test system: Staphylococcus aureus; experiment: Antibacterial activity against Staphylococcus aureus ATCC 25923 infected in C57BL/6 mouse assessed as reduction in bacterial load at 10 mg/kg,ip administrated 5 hrs after bacterial infection; assay type: functional, organism-based
[4] = test system: Staphylococcus aureus; experiment: Antibacterial activity against Methicillin-resistant Staphylococcus aureus infected in C57BL/6 mouse assessed as reduction in bacterial load at 10 mg/kg,ip administrated 5 hrs after bacterial infection; assay type: functional, organism-based
[5] = test system: Escherichia coli; experiment: Antibacterial activity against Carbapenem-resistant Escherichia coli infected in C57BL/6 mouse assessed as reduction in bacterial load at 10 mg/kg,ip administrated 5 hrs after bacterial infection; assay type: functional, organism-based
[6] = test system: Escherichia coli; experiment: Antibacterial activity against Escherichia coli ATCC 25922 infected in C57BL/6 mouse assessed as reduction in IL-6 level in peritoneal fluid at 10 mg/kg,ip pre-administrated 5 hrs before bacterial infection measured after 24 hrs by ELISA; assay type: functional, organism-based; conditions: time 29.0 hrs
[7] = test system: Escherichia coli; experiment: Antibacterial activity against Escherichia coli ATCC 25922 infected in C57BL/6 mouse assessed as reduction in TNF-alpha level in peritoneal fluid at 10 mg/kg,ip administrated 5 hrs after bacterial infection measured after 24 hrs by ELISA; assay type: functional, organism-based; conditions: time 19.0 hrs
[8] = test system: Escherichia coli; experiment: Antibacterial activity against Carbapenem-resistant Escherichia coli infected in C57BL/6 mouse assessed as reduction in IL-1beta level in peritoneal fluid at 10 mg/kg,ip pre-administrated 5 hrs before bacterial infection measured after 24 hrs by ELISA; assay type: functional, organism-based; conditions: time 29.0 hrs
[9] = test system: Escherichia coli; experiment: Antibacterial activity against Escherichia coli ATCC 25922 infected in C57BL/6 mouse assessed as reduction in TNF-alpha level in serum at 10 mg/kg,ip administrated 5 hrs after bacterial infection measured after 24 hrs by ELISA; assay type: functional, organism-based; conditions: time 19.0 hrs
[10] = test system: Mus musculus; experiment: Immunomodulatory activity in cyclophosphamide immunosuppressed C57BL/6 mouse with neutrophil depletion model assessed as increase in number of neutrophil in peritoneal lavage at 10 mg/kg,ip administration measured after 24 hrs by flow cytometry; assay type: functional, organism-based
[11] = test system: Mus musculus; experiment: Immunomodulatory activity in clodronate liposome immunosuppressed C57BL/6 mouse with neutrophil depletion model assessed as change in T-lymphocytes in peritoneal lavage at 10 mg/kg,ip administration measured after 5 to 24 hrs by flow cytometry; assay type: functional, organism-based; conditions: time 5-24 hrs
[12] = test system: Peritoneal macrophage; experiment: Induction of chemotaxis in mouse Peritoneal macrophage assessed as upregulation of CXCL1 gene expression incubated for 6 hrs by qPCR analysis; assay type: functional, cell-based
[13] = test system: Peritoneal macrophage; experiment: Induction of chemotaxis in mouse Peritoneal macrophage assessed as upregulation of CXCL2 gene expression incubated for 6 hrs by qPCR analysis; assay type: functional, cell-based
[14] = test system: Peritoneal macrophage; experiment: Induction of chemotaxis in mouse Peritoneal macrophage assessed as upregulation of MCP-1 gene expression incubated for 6 hrs by qPCR analysis; assay type: functional, cell-based
[15] = test system: Mus musculus; experiment: Induction of chemotaxis in C57BL/6 mouse assessed as upregulation of CXCL2 expression in peritoneal lavage at 10 mg/kg,ip administration measured at 5 to 24 hrs by ELISA; assay type: functional, organism-based; conditions: time 5-24 hrs
[16] = test system: Peritoneal macrophage; experiment: Induction of phagocytosis in mouse Peritoneal macrophage assessed as increase in neutral red dye uptake by measuring optical density absorbance at 25 ug/ml incubated for 24 hrs followed by dye addition measured after 4 hrs by absorbance based assay (reference value: 0.089); assay type: functional; conditions: dose 25 µg/ml; time 28 hrs
[17] = test system: Peritoneal macrophage cell; experiment: Induction of phagocytosis in mouse Peritoneal macrophage assessed as increase in neutral red dye uptake by measuring optical density absorbance at 100 ug/ml incubated for 24 hrs followed by dye addition measured after 4 hrs by absorbance based assay (reference value: 0.089); assay type: functional; conditions: dose 100 µg/ml; time 28 hrs
[18] = test system: Neutrophil; experiment: Induction of chemotaxis in mouse bone marrow derived neutrophil assessed as increase in neutrophil migration incubated for 8 hrs in presence of macrophage by crystal violet staining based indirect transwell assay; assay type: functional, cell-based
[19] = test system: Neutrophil; experiment: Induction of phagocytosis in mouse bone marrow derived neutrophil cultured with CFSE-labeled Methicillin-resistant Staphylococcus aureus incubated for 1.5 hrs followed by bacterial exposure for 1 hr by flow cytometry; assay type: functional, cell-based; conditions: time 2.5 hrs
[20] = test system: Neutrophil; experiment: Induction of degranulation in mouse bone marrow derived neutrophil assessed as increase in CRAMP release at 25 to 100 ug/ml incubated for 6 hrs by ELISA; assay type: functional, cell-based; conditions: dose 25-100 µg/ml
[21] = test system: Neutrophil; experiment: Induction of ROS production in mouse bone marrow derived neutrophil at 25 to 100 ug/ml incubated for 6 hrs by DCFA-DA staining based flow cytometry; assay type: functional, cell-based; conditions: dose 25-100 µg/ml
[22] = test system: Neutrophil; experiment: Induction of chemotaxis in mouse bone marrow derived neutrophil assessed as increase in neutrophil migration at 100 ug/ml preincubated with KN62 for 30 mins followed by compound addition measured after 8 hrs by crystal violet staining based indirect transwell assay; assay type: functional, cell-based; conditions: dose 100.0 µg/ml
[23] = test system: Neutrophil; experiment: Induction of chemotaxis in mouse bone marrow derived neutrophil assessed as increase in neutrophil migration at 100 ug/ml preincubated with WRW4 for 30 mins followed by compound addition measured after 8 hrs by crystal violet staining based indirect transwell assay; assay type: functional, cell-based; conditions: dose 100.0 µg/ml
[24] = test system: Peritoneal macrophage cell; experiment: Induction of chemotaxis in mouse Peritoneal macrophage assessed as upregulation of CXCL1 production at 100 ug/ml preincubated with KN-62 followed by compound addition by ELISA; assay type: functional, cell-based; conditions: dose 100.0 µg/ml
[25] = test system: Peritoneal macrophage; experiment: Induction of chemotaxis in mouse Peritoneal macrophage assessed as upregulation of CXCL2 production at 100 ug/ml preincubated with MTS510 followed by compound addition by ELISA; assay type: functional, cell-based; conditions: dose 100.0 µg/ml
[26] = test system: Peritoneal macrophage; experiment: Immunoregulatory activity in mouse Peritoneal macrophage assessed as upregulation of ERK phosphorylation incubated for 1 hr by Western blotting analysis; assay type: functional, cell-based
[27] = test system: Mus musculus; experiment: Anticoagulation activity in mouse infected with Methicillin-resistant Staphylococcus aureus assessed as increase in plasma AT-III expression at 10 mg/kg,ip pre-administrated 5 hrs before bacterial infection measured after 24 hrs by ELISA; assay type: functional, organism-based; conditions: time 29.0 hrs
[28] = test system: Mus musculus; experiment: Anticoagulation activity in mouse infected with Carbapenem-resistant Escherichia coli assessed as increase in plasma APC expression at 10 mg/kg,ip pre-administrated 5 hrs before bacterial infection measured after 24 hrs by ELISA; assay type: functional, organism-based; conditions: time 29.0 hrs
[29] = test system: Staphylococcus aureus; experiment: Antibacterial activity against Methicillin-resistant Staphylococcus aureus infected in C57BL/6 mouse with cyclophosphamide-induced neutrophil depletion model assessed as reduction of bacterial burden in peritoneal cavity at 10 mg/kg,ip pre-administrated 5 hrs before bacterial infection measured after 24 hrs; assay type: functional, organism-based; conditions: time 29.0 hrs
[30] = test system: Staphylococcus aureus; experiment: Antibacterial activity against Methicillin-resistant Staphylococcus aureus infected in C57BL/6 mouse with cyclophosphamide-induced neutrophil depletion model assessed as reduction of bacterial burden in peritoneal cavity at 10 mg/kg,ip administrated 5 hrs after bacterial infection measured after 24 hrs; assay type: functional, organism-based; conditions: time 19.0 hrs
[31] = test system: Escherichia coli; experiment: Antibacterial activity against Carbapenem-resistant Escherichia coli infected in C57BL/6 mouse with clodronate liposome-induced monocyte depletion model assessed as decrease in bacterial burden in peritoneal cavity at 10 mg/kg,ip pre-administrated 5 hrs before bacterial infection measured after 24 hrs; assay type: functional, organism-based; conditions: time 29.0 hrs

With `CC[C@H](C)[C@H](NC(=O)[C@@H]1CSSC[C@H](NC(=O)[C@H](CCC(=O)O)NC(=O)[C@@H](NC(=O)[C@H](CCCCN)NC(=O)[C@H](Cc2c[nH]cn2)NC(=O)[C@@H](NC(=O)[C@H](CCCCN)NC(=O)[C@H](CCC(=O)O)NC(=O)[C@H](C)NC(=O)[C@H](CCC(=O)O)NC(=O)[C@H](CCC(=O)O)NC(=O)[C@H](CCC(=O)O)NC(=O)[C@H](C)N)[C@@H](C)O)[C@@H](C)O)C(=O)N[C@@H](CC(C)C)C(=O)N[C@@H](CCC(=O)O)C(=O)N1)C(=O)N[C@@H](Cc1ccccc1)C(=O)N[C@H](C(=O)N[C@@H](CC(C)C)C(=O)N[C@@H](CC(C)C)C(=O)N1CCC[C@H]1C(=O)N1CCC[C@@H]1C(=O)N[C@H](C)C(=O)O)[C@@H](C)O` the Activity [1] was “inactive”, the Activity [2] was “inactive” and the Activity [3] was “Active”. The Activity [4] was “Active”, the Activity [5] was “Active” and the Activity [6] was “Active”. For the same compound, the Activity [7] was “Active”, the Activity [8] was “Active” and the Activity [9] was “Active”. The Activity [10] was “inactive”, the Activity [11] was “inactive” and the Activity [12] was “Dose-Dependent Effect”. The Activity [13] was “Dose-Dependent Effect”, the Activity [14] was “Dose-Dependent Effect” and the Activity [15] was “inactive”. For the same compound, the OD [16] was 0.097, the OD [17] was 0.111 and the Activity [18] was “Dose-Dependent Effect”. For the same compound, the Activity [19] was “Dose-Dependent Effect”, the Activity [20] was “Active” and the Activity [21] was “inactive”. The Activity [22] was “Active”, the Activity [23] was “Active” and the Activity [24] was “Active”. For the same compound, the Activity [25] was “Active”, the Activity [26] was “Dose-Dependent Effect” and the Activity [27] was “Active”. The Activity [28] was “Active”, the Activity [29] was “inactive” and the Activity [30] was “inactive”. For the same compound, the Activity [31] was “inactive”.
